{
  "source": "patent US20170196854A1",
  "about": "“USE OF ANTHELMINTIC AGENTS AGAINST DIROFILARIA IMMITIS” (INTERVET INTERNATIONAL B.V., priority 2014, published 2017)",
  "key": {"[1]": {"test_system": "Dirofilaria immitis microfilariae", "assay": "Microfilaricidal activity against Dirofilaria immitis microfilariae in 96-well plates", "assay_type": "cell-based", "details": "in Canis lupus familiaris, read-out: EC50 (half maximal effective concentration), microfilaricidal activity"}, "[2]": {"test_system": "L4 larvae of Dirofilaria immitis", "assay": "microbe, parasite or virus in culture", "assay_type": "cell-based", "details": "72 h, read-out: MIC100 (lowest dose that results in complete loss of motility)"}},
  "data": [
    {"smiles": "C[C@@H](CN1CCN(c2ccc(OC(F)(F)F)cc2)CC1)C(=O)N1CCC(Nc2ccc([N+](=O)[O-])c(C(F)(F)F)c2)CC1", "note": "[Example 1037]", "values": [
      {"measurement": "EC50", "setting": "[1]", "result": "< 10", "unit": "µM"},
      {"measurement": "MIC", "setting": "[2]", "result": "< 5", "unit": "µM"}
    ]}
  ]
}
